Structures are written as SMILES. Structures can show the parent of a compound that is named as a salt.

Consider 53 compounds from the RepoRT retention time repository.

A short description of the series: HILIC, Merck SeQuant ZIC-HILIC, 25 °C, 0.25 mL/min; A: water + 16 mM ammonium formate; B: acetonitrile + 0.1% formic acid, pH 3; gradient (min/%B) 0/97 2/97 10/70 15/10 17/10 18/97 25/97. The conditions noted are these: stereoisomer not certain.
As for `CCCCCCCCCCCCCCCC(O)C(N)CO` (stereo not drawn) [SPHINGANINE], the LC retention time came out at 9.91 min.
The value for `CCCCCCCCCCCCCC=CC(O)C(COP(=O)([O-])OCC[N+](C)(C)C)NC(=O)CCCCCCCCCCCCCCCCC` (stereo not drawn) [SPHINGOMYELIN] was 10.8 min.
In the case of `OCC1OC(OCC2OC(OCC3OC(OC4(CO)OC(CO)C(O)C4O)C(O)C(O)C3O)C(O)C(O)C2O)C(O)C(O)C1O` (stereo not drawn) [STACHYOSE] it was 15.1 min; in that of `CCCCCCCCCCCCCCCCCC(=O)O` [STEARATE], 1.56 min.
In the case of `O=C(O)CCCCCCC(=O)O` [SUBERATE] it was 1.91 min; in that of `O=C(O)CCCCCCCCC(=O)O` [Sebacic acid], 1.88 min.
In the case of `O=C(O)C(O)C(O)C(=O)O` (stereo not drawn) [TARTRATE D], the LC retention time was found to be 14.2 min.
The value for `Cc1ncc(C[n+]2csc(CCOP(=O)(O)O)c2C)c(N)n1` [THIAMINE MONOPHOSPHATE] was 16.4 min; that for `Cc1ncc(C[n+]2csc(CCOP(=O)([O-])OP(=O)(O)O)c2C)c(N)n1` [THIAMINE PYROPHOSPHATE] was 16.5 min; that for `Cc1ncc(C[n+]2csc(CCO)c2C)c(N)n1` [THIAMINE] was 14.3 min.
The value for `NC(N)=S` [THIOUREA] was 5.07 min; that for `Cc1cn(C2CC(O)C(CO)O2)c(=O)[nH]c1=O` (stereo not drawn) [THYMIDINE] was 2.17 min.
`Cc1c[nH]c(=O)[nH]c1=O` [THYMINE]: the LC retention time was found to be 2.14 min.
In the case of `NC(=O)C1CCCN1C(=O)C(Cc1cnc[nH]1)NC(=O)C1CCC(=O)N1` (stereo not drawn) [THYROTROPIN RELEASING HORMONE] it was 13.3 min; in that of `OC1CCCCC1O` (stereo not drawn) [TRANS-CYCLOHEXANEDIOL], 1.85 min; in that of `OCC1OC(OC2OC(CO)C(O)C(O)C2O)C(O)C(O)C1O` (stereo not drawn) [TREHALOSE], 14.1 min.
In the case of `CCCCCCCCCCCCCCCCCCCCCCC(=O)[O-]` [TRICOSANOATE] it was 1.53 min; in that of `C[n+]1cccc(C(=O)[O-])c1` [TRIGONELLINE], 13 min.
In the case of `NCCc1c[nH]c2ccccc12` [TRYPTAMINE] it was 10.5 min; in that of `NC(Cc1c[nH]c2ccccc12)C(=O)O` (stereo not drawn) [TRYPTOPHAN], 11.4 min; in that of `NCCc1ccc(O)cc1` [TYRAMINE], 11.3 min.
Turning to `O=C/C=C/c1ccccc1` [Trans-Cinnamaldehyde], the LC retention time stood at 1.57 min.
The value for `O=C(O)CC(CC(=O)O)C(=O)O` [Tricarballylic acid] was 9.58 min; that for `O=c1cc[nH]c(=O)[nH]1` [URACIL] was 2.24 min; that for `O=c1[nH]c(=O)c2[nH]c(=O)[nH]c2[nH]1` [URATE] was 11.2 min.
The value for `O=c1ccn(C2OC(COP(=O)(O)OP(=O)(O)O)C(O)C2O)c(=O)[nH]1` (stereo not drawn) [URIDINE 5'-DIPHOSPHATE] was 15 min; that for `O=C(O)C1OC(OP(=O)(O)OP(=O)(O)OCC2OC(n3ccc(=O)[nH]c3=O)C(O)C2O)C(O)C(O)C1O` (stereo not drawn) [URIDINE DIPHOSPHATE GLUCURONIC ACID] was 15.3 min.
`O=c1ccn(C2OC(COP(=O)(O)O)C(O)C2O)c(=O)[nH]1` (stereo not drawn) [URIDINE MONOPHOSPHATE]: the LC retention time is 13.9 min.
In the case of `O=c1ccn(C2OC(CO)C(O)C2O)c(=O)[nH]1` (stereo not drawn) [URIDINE], the LC retention time was 9 min.
In the case of `O=C(O)C=Cc1cnc[nH]1` [UROCANATE] it was 8.66 min; in that of `C=C1CCC(O)CC1=CC=C1CCCC2(C)C1CCC2C(C)C=CC(C)C(C)C` (stereo not drawn) [VITAMIN D2], 1.55 min; in that of `COc1cc(C(=O)O)ccc1O` [Vanillic acid], 2.08 min.
In the case of `O=c1[nH]c(=O)c2[nH]cnc2[nH]1` [XANTHINE] it was 8.96 min; in that of `O=c1[nH]c(=O)c2ncn(C3OC(COP(=O)(O)O)C(O)C3O)c2[nH]1` (stereo not drawn) [XANTHOSINE-MONOPHOSPHATE], 14.4 min; in that of `O=c1[nH]c(=O)c2ncn(C3OC(CO)C(O)C3O)c2[nH]1` (stereo not drawn) [XANTHOSINE], 10.4 min.
For the compound `O=C(O)c1cc(=O)c2cccc(O)c2[nH]1` [XANTHURENATE], the LC retention time amounted to 10.4 min.
The value for `COC1=C(OC)C(=O)C(CC=C(C)C)=C(C)C1=O` [coenzyme Q1] was 1.53 min.
In the case of `COC1=C(OC)C(=O)C(CC=C(C)CCC=C(C)C)=C(C)C1=O` [coenzyme Q2] it was 1.52 min.
For `Nc1nc2c(ncn2C2CC(O)C(COP(=O)(O)O)O2)c(=O)[nH]1` (stereo not drawn) [dGMP sodium salt hydrate], the LC retention time was found to be 14.4 min.
In the case of `Cc1cc(O)cc2c1OC(C)(CCC(=O)O)CC2` (stereo not drawn) [delta CEHC] it was 1.87 min.
In the case of `CC(CCC(=O)O)C1CCC2C3CCC4CC(O)CCC4(C)C3CC(O)C12C` (stereo not drawn) [deoxycholic acid] it was 1.98 min.
In the case of `O=C(O)C=CC(=O)O` [fumaric acid] it was 7.45 min; in that of `O=C(O)CCc1ccccc1` [hydrocinnamic acid], 1.69 min.
On to `COC(=O)CCCCC(=O)O` [mono-Methyl adipate], for which the LC retention time worked out at 1.71 min.
The value for `CC(=O)OC(CC(=O)[O-])C[N+](C)(C)C` (stereo not drawn) [o-acetyl-l-carnitine hydrochloride] was 13 min; that for `O=C(O)CCCCCC(=O)O` [pimelic acid] was 2.14 min; that for `CC(=O)C1CCC2C3CC=C4CC(OS(=O)(=O)O)CCC4(C)C3CCC12C` (stereo not drawn) [pregnenolone sulfate] was 2.05 min.
In the case of `CC(=O)C(=O)O` [pyruvic acid], the LC retention time was 5.68 min.
In the case of `O=c1c(O)c(-c2ccc(O)c(O)c2)oc2cc(O)cc(O)c12` [quercetine dihydrate] it was 2.16 min; in that of `CC1OC(OCC2OC(Oc3c(-c4ccc(O)c(O)c4)oc4cc(O)cc(O)c4c3=O)C(O)C(O)C2O)C(O)C(O)C1O` (stereo not drawn) [rutin hydrate], 10.6 min; in that of `O=C(O)CCC(=O)O` [succinic acid], 2.19 min.
`O=C(O)/C=C/c1c[nH]c2ccccc12` [trans-3-indoleacrylic acid]: the LC retention time turned out to be 2.04 min.
The value for `C[N+](C)(C)[O-]` [trimethylamine N-oxide] was 11.9 min.
